Measurements published in ChEMBL document CHEMBL5360623, “Principles and Applications of CF2X Moieties as Unconventional Halogen Bond Donors in Medicinal Chemistry, Chemical Biology, and Drug Discovery” (J Med Chem, 2023).

What was measured:
[1] = biological target: Mitogen-activated protein kinase 10 (Homo sapiens, UniProt P53779); assay: Binding affinity to JNK3 (39 to 402 residues) (unknown origin) expressed in Escherichia coli BL21(DE3) assessed as dissociation constant by isothermal titration calorimetry assay
Sequence of Mitogen-activated protein kinase 10 (P53779 whole entry, the tested form may be a part): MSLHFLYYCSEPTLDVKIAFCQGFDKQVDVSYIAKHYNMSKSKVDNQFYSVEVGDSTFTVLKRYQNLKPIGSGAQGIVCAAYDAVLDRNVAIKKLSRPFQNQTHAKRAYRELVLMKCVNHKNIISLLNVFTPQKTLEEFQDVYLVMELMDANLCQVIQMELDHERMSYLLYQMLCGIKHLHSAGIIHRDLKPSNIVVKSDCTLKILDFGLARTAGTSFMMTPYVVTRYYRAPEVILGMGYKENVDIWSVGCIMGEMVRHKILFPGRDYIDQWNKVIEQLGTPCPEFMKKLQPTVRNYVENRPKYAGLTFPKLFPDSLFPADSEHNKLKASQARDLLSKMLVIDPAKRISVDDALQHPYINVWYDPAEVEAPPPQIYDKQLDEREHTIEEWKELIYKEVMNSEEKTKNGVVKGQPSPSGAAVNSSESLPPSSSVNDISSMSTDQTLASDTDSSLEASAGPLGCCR

[2] = biological target: Mitogen-activated protein kinase 8 (Homo sapiens, UniProt P45983); assay: Binding affinity to JNK1 (2 to 364 residues) (unknown origin) expressed in Escherichia coli BL21(DE3) assessed as dissociation constant by isothermal titration calorimetry assay
Sequence of Mitogen-activated protein kinase 8 (P45983 whole entry, the tested form may be a part): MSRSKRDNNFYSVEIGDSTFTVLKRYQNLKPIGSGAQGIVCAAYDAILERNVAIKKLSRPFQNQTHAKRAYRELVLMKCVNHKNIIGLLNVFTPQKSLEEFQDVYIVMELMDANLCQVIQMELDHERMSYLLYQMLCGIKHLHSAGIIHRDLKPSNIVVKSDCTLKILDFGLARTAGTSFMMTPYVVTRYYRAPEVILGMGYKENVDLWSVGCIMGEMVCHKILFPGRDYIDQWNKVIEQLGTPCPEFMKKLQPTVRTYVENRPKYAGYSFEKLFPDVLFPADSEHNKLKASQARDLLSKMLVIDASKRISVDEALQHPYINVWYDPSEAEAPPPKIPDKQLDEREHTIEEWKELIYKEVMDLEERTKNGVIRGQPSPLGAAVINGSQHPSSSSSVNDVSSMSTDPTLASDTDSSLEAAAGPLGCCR

[3] = Stability of the compound in PBS buffer assessed as half life at 250 uM at pH 7.4 in presence of GSH by HPLC analysis; type: physicochemical; settings: pH 7.4, 250 µM

Structure (SMILES)	Kd [1]	Kd [2]	t1/2 [3]	Kd ([2]; read-out: Kd)	Kd ([1]; read-out: Kd)
O=C(Nc1ccc2c(c1)OCO2)C(F)F			> 50 days		
CCOC(=O)c1cnn(C)c1NC(=O)C(F)(F)Cl	Not Active	Not Active			
NC(=O)Nc1ccc(OC(F)(F)Cl)cc1			> 50 days		
O=C(Nc1ccc(O)c(O)c1)C(F)(F)Cl	Not Active	Not Active			
NC(=O)Nc1ccc(OC(F)F)cc1			> 50 days		
COC(=O)c1scc(C)c1NC(=O)C(F)(F)Cl	Not Active	Not Active			
O=C(Nc1nncs1)C(F)(F)I				104 µM	186 µM
CCOC(=O)c1c(NC(=O)C(F)(F)Br)sc2c1CCCC2	Not Active	Not Active			
O=C(Nc1nnc(-c2ccncc2)s1)C(F)(F)I				10 µM	13 µM
O=C(Nc1nncs1)C(F)(F)Cl				186 µM	243 µM
O=C(Nc1ccc(F)cc1)C(F)(F)Br	Not Active	Not Active			
O=C(Nc1nnc(-c2ccncc2)s1)C(F)(F)Cl				20 µM	23 µM
O=C(Nc1nncs1)C(F)(F)Br				193 µM	248 µM
O=C(Nc1ccc(Cn2cncn2)cc1)C(F)(F)Br	Not Active	Not Active			
O=C(Nc1nccs1)C(F)(F)Br				> 1000 µM	> 1000 µM
O=C(Nc1cccc2nsnc12)C(F)(F)Br	Not Active	Not Active			
O=C(NCCc1c[nH]c2ccccc12)C(F)(F)Cl	Not Active	Not Active			

Continued, values first:

Kd [1]	Kd [2]	t1/2 [3]	Kd ([2]; read-out: Kd)	Kd ([1]; read-out: Kd)	Structure (SMILES)
Not Active	Not Active				NC(=O)Nc1ccc(NC(=O)C(F)(F)Br)cc1
		0.3 days			NC(=O)Nc1ccc(OC(F)(F)I)cc1
Not Active	Not Active				O=C(Nc1nnc(-c2ccc([N+](=O)[O-])cc2)o1)C(F)(F)Br
Not Active			162 µM		Nc1nnc(-c2ccncc2)s1
			15 µM	17 µM	O=C(Nc1nnc(-c2ccncc2)s1)C(F)(F)Br
		11.7 days	> 1000 µM	> 1000 µM	O=C(Nc1ccc2c(c1)OCO2)C(F)(F)Br
	Not Active	10.8 days		> 1000 µM	O=C(Nc1ccc2c(c1)OCO2)C(F)(F)Cl
		> 50 days			NC(=O)Nc1ccc(OC(F)(F)F)cc1
			> 1000 µM	> 1000 µM	O=C(c1cnc2ccccn12)C(F)(F)Cl
Not Active	Not Active				O=C(c1ccco1)N1CCN(C(=O)C(F)(F)Br)CC1
		5.42 days			O=C(Nc1ccc2c(c1)OCO2)C(F)(F)F
		0.221 days			NC(=O)Nc1ccc(OC(F)(F)Br)cc1
Not Active	Not Active	12.1 days			O=C(Nc1ccc2c(c1)OCO2)C(F)(F)I
